# In patent US11987586B1 (TAKEDA PHARMACEUTICAL COMPANY LIMITED, priority 2022, dated 2024):
# Molecular target: T1, human OX2 receptor (Homo sapiens, UniProt O43614)
# T1 construct: expressed in transfected cells
# T1 sequence (O43614 1-444): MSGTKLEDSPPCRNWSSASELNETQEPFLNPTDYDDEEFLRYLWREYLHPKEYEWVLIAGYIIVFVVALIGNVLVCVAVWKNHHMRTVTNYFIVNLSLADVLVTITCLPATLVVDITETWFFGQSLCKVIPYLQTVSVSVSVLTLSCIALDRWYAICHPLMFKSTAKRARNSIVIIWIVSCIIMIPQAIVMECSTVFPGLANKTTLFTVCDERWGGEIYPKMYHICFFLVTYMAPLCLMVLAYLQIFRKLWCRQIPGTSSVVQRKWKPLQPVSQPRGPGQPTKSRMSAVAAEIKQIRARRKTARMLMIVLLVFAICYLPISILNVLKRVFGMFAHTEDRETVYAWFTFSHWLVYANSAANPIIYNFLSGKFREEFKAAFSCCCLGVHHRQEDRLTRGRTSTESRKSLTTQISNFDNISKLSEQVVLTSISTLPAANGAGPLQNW
# Test: Measurement of orexin type 2 receptor agonist activity (calcium fluorescence, Fluo-4, FDSS)
# Type: cell-based
# Settings: 3 uM test compound; CHO cells expressing human OX2 receptor; DMSO = 0%, 10 nM orexin A (human) = 100%
# Protocol: In order to obtain cell clones that stably express human orexin type 2 receptor, human orexin type 2 (residues 1-444, NCBI Reference Sequence: AK314279) was constructed in a pcDNA3.1 (+) vector (Invitrogen) to express in mammalian cells. This plasmid DNA was transfected into CHO-K1 cells by electroporation, and stable clones were obtained by limiting dilution using resistance to G418 as a selection marker.
# CHO cells in which human OX2 receptor was forcibly expressed were seeded at 10,000 cells/well into a 384-well black transparent bottom plate (BD falcon), and were incubated at 37° C., 5% CO2 for 1 day after incubation at room temperature for 30 minutes. After removing the cell plate medium, assay buffer containing calcium indicator A (HBSS (Thermo Fisher Scientific), 20 mM HEPES (Thermo Fisher Scientific), 0.1% BSA (Sigma-Aldrich), 2.5 μg/mL Fluo-4 AM (Dojin Kagaku), 0.08% Pluronic F127 (Dojin Kagaku), 1.25 mM probenecid (Dojin Kagaku)) was added at 30 μL/well. After incubation in a 5% CO2 incubator at 37° C. for 30 minutes, it was incubated at room temperature for another 30 minutes. Add 10 μL/well of the test compound diluted with assay buffer B (HBSS, 20 mM HEPES, 0.1% BSA), and use FDSS μCELL (Hamamatsu Photonics) to measure the fluorescence value every 1 second for 1 minute, and then every 2 seconds for 1 minute. It was measured for 1 minute and 40 seconds. The amount of fluorescence value when DMSO is added instead of the test compound is defined as 0%, and the amount of fluorescence value when orexin A (human) (Peptide Institute) with a final concentration of 10 nM is added is defined as 100%. The activity (%) of the test compound was calculated.
row,SMILES,"OX2R agonist activity (3 uM, %) [%]"
1,"Cc1cc(-c2c(F)cc(F)cc2F)c2c(N3CC[C@H]4N(C[C@@H](NS(C)(=O)=O)C4(F)F)C3=O)noc2n1 [Example 258, N-{(4aR,6R)-5,5-difluoro-2-[6-methyl-4-(2,4,6-trifluorophenyl)[1,2]oxazolo[5,4-b]pyridin-3-yl]-1-oxooctahydropyrrolo[1,2-c]pyrimidin-6-yl}methanesulfonamide]",100
2,"CCS(=O)(=O)N[C@@H]1CN2C(=O)N(c3noc4nc(C)cc(-c5c(F)cc(F)cc5F)c34)C[C@@H]2C1(F)F [Example 175, N-{(6R,7aR)-7,7-difluoro-2-[6-methyl-4-(2,4,6-trifluorophenyl)[1,2]oxazolo[5,4-b]pyridin-3-yl]-3-oxohexahydro-1H-pyrrolo[1,2-c]imidazol-6-yl}ethanesulfonamide]",98
3,"Cc1cc(-c2c(F)cc(F)cc2F)c2c(N3C[C@H]4N(C[C@@H](NS(C)(=O)=O)C4(F)F)C3=O)noc2c1 [Example 140, N-{(6R,7aR)-7,7-difluoro-2-[6-methyl-4-(2,4,6-trifluorophenyl)-1,2-benzoxazol-3-yl]-3-oxohexahydro-1H-pyrrolo[1,2-c]imidazol-6-yl}methanesulfonamide]",100
4,"CCOc1cc(-c2c(F)cc(F)cc2F)c2c(N3CC[C@H]4N(C[C@@H](NS(=O)(=O)C5CC5)C4(F)F)C3=O)noc2c1 [Example 249, N-{(4aR,6R)-2-[6-ethoxy-4-(2,4,6-trifluorophenyl)-1,2-benzoxazol-3-yl]-5,5-difluoro-1-oxooctahydropyrrolo[1,2-c]pyrimidin-6-yl}cyclopropanesulfonamide]",102
5,"CCS(=O)(=O)N[C@H]1C[C@H]2CN(c3noc4c(C)ccc(-c5c(F)cccc5F)c34)C(=O)N2C1 [Example 30, N-{(6S,7aS)-2-[4-(2,6-difluorophenyl)-7-methyl-1,2-benzoxazol-3-yl]-3-oxohexahydro-1H-pyrrolo[1,2-c]imidazol-6-yl}ethanesulfonamide]",94
6,"CCOc1cc(-c2c(F)cccc2F)c2c(N3CC[C@H]4N(C[C@@H](NS(C)(=O)=O)C4(F)F)C3=O)noc2c1 [Example 199, N-{(4aR,6R)-2-[4-(2,6-difluorophenyl)-6-ethoxy-1,2-benzoxazol-3-yl]-5,5-difluoro-1-oxooctahydropyrrolo[1,2-c]pyrimidin-6-yl}methanesulfonamide]",105
7,"CS(=O)(=O)N[C@@H]1CN2C(=O)N(c3noc4cc(C(F)F)cc(-c5c(F)cc(F)cc5F)c34)CC[C@@H]2C1(F)F [Example 200, N-{(4aR,6R)-2-[6-(difluoromethyl)-4-(2,4,6-trifluorophenyl)-1,2-benzoxazol-3-yl]-5,5-difluoro-1-oxooctahydropyrrolo[1,2-c]pyrimidin-6-yl}methanesulfonamide]",122
8,"CS(=O)(=O)N[C@@H]1Cn2c(cn(-c3noc4ccc(F)c(-c5c(F)cccc5F)c34)c2=O)C1(F)F [Example 75, N-{(6R)-2-[4-(2,6-Difluorophenyl)-5-fluoro-1,2-benzoxazol-3-yl]-7,7-difluoro-3-oxo-2,5,6,7-tetrahydro-3H-pyrrolo[1,2-c]imidazol-6-yl}methanesulfonamide]",99
9,"CS(=O)(=O)N[C@@H]1Cn2c(cn(-c3noc4cc(C(F)(F)F)cc(-c5c(F)cccc5F)c34)c2=O)C1(F)F [Example 74, N-{(6R)-2-[4-(2,6-difluorophenyl)-6-(trifluoromethyl)-1,2-benzoxazol-3-yl]-7,7-difluoro-3-oxo-2,5,6,7-tetrahydro-3H-pyrrolo[1,2-c]imidazol-6-yl}methanesulfonamide]",104
10,"CNS(=O)(=O)N[C@@H]1Cn2c(cn(-c3noc4cc(C)nc(-c5c(F)cccc5F)c34)c2=O)C1(F)F [Example 302, N-{(6R)-2-[4-(2,6-difluorophenyl)-6-methyl[1,2]oxazolo[4,5-c]pyridin-3-yl]-7,7-difluoro-3-oxo-2,5,6,7-tetrahydro-3H-pyrrolo[1,2-c]imidazol-6-yl}-N′-methylsulfuric diamide]",103
11,"CCS(=O)(=O)N[C@@H]1Cn2c(cn(-c3noc4cc(F)c(F)c(-c5c(F)cccc5F)c34)c2=O)C1(F)F [Example 170, N-{(6R)-2-[4-(2,6-difluorophenyl)-5,6-difluoro-1,2-benzoxazol-3-yl]-7,7-difluoro-3-oxo-2,5,6,7-tetrahydro-3H-pyrrolo[1,2-c]imidazol-6-yl}ethanesulfonamide]",94
12,"CCS(=O)(=O)N[C@@H]1Cn2c(cn(-c3noc4cc(Cl)cc(-c5c(F)cc(F)cc5F)c34)c2=O)C1(F)F [Example 39, N-{(6R)-2-[6-chloro-4-(2,4,6-trifluorophenyl)-1,2-benzoxazol-3-yl]-7,7-difluoro-3-oxo-2,5,6,7-tetrahydro-3H-pyrrolo[1,2-c]imidazol-6-yl}ethanesulfonamide]",106
13,"CCS(=O)(=O)N[C@H]1C[C@H]2CN(c3noc4cccc(-c5c(F)cccc5C(F)(F)F)c34)C(=O)N2C1 [Example 32, N-[ (6S,7aS)-2-{4-[2-fluoro-6-(trifluoromethyl)phenyl]-1,2-benzoxazol-3-yl}-3-oxohexahydro-1H-pyrrolo[1,2-c]imidazol-6-yl] ethanesulfonamide]",94
14,"Cc1cc2onc(-n3cc4n(c3=O)C[C@@H](NS(C)(=O)=O)C4(F)F)c2c(-c2c(F)cccc2F)n1 [Example 196, N-{(6R)-2-[4-(2,6-difluorophenyl)-6-methyl[1,2]oxazolo[4,5-c]pyridin-3-yl]-7,7-difluoro-3-oxo-2,5,6,7-tetrahydro-3H-pyrrolo[1,2-c]imidazol-6-yl}methanesulfonamide]",106
15,"O=C1N(c2noc3ccc(F)c(-c4c(F)cc(F)cc4F)c23)CC[C@H]2N1C[C@@H](NS(=O)(=O)CF)C2(F)F [Example 207, N-{(4aR,6R)-5,5-difluoro-2-[5-fluoro-4-(2,4,6-trifluorophenyl)-1,2-benzoxazol-3-yl]-1-oxooctahydropyrrolo[1,2-c]pyrimidin-6-yl}-1-fluoromethanesulfonamide]",113
16,"CS(=O)(=O)N[C@@H]1CN2C(=O)N(c3noc4cc(F)c(F)c(-c5c(F)cc(F)cc5F)c34)C[C@@H]2C1(F)F [Example 171, N-{(6R,7aR)-2-[5,6-Difluoro-4-(2,4,6-trifluorophenyl)-1,2-benzoxazol-3-yl]-7,7-difluoro-3-oxohexahydro-1H-pyrrolo[1,2-c]imidazol-6-yl}methanesulfonamide]",100
17,"O=C1N(c2noc3cccc(-c4c(F)cc(F)cc4F)c23)CC[C@H]2N1C[C@@H](NS(=O)(=O)CF)C2(F)F [Example 203, N-{(4aR,6R)-5,5-difluoro-1-oxo-2-[4-(2,4,6-trifluorophenyl)-1,2-benzoxazol-3-yl]octahydropyrrolo[1,2-c]pyrimidin-6-yl}-1-fluoromethanesulfonamide]",114
18,"CCS(=O)(=O)N[C@@H]1CN2C(=O)N(c3noc4cccc(-c5nccs5)c34)CC[C@@H]2C1(F)F [Example 330, N-{(4aR,6R)-5,5-difluoro-1-oxo-2-[4-(1,3-thiazol-2-yl)-1,2-benzoxazol-3-yl]octahydropyrrolo[1,2-c]pyrimidin-6-yl}ethanesulfonamide]",109
19,"O=C1N(c2noc3cccc(-c4c(F)cccc4F)c23)CC[C@H]2N1C[C@@H](NS(=O)(=O)C1CC1)C2(F)F [Example 285, N-{(4aR,6R)-2-[4-(2,6-difluorophenyl)-1,2-benzoxazol-3-yl]-5,5-difluoro-1-oxooctahydropyrrolo[1,2-c]pyrimidin-6-yl}cyclopropanesulfonamide]",105
20,"COCc1cc(-c2c(F)cccc2F)c2c(-n3cc4n(c3=O)C[C@@H](NS(C)(=O)=O)C4(F)F)noc2c1 [Example 132, N-{(6R)-2-[4-(2,6-difluorophenyl)-6-(methoxymethyl)-1,2-benzoxazol-3-yl]-7,7-difluoro-3-oxo-2,5,6,7-tetrahydro-3H-pyrrolo[1,2-c]imidazol-6-yl}methanesulfonamide]",94
